Experimental data taken from patent US8703800B2, “Nitrate and diazeniumdiolate derivatives of pioglitazone” (Cardiolynx AG, priority 2010, dated 2014).
Where two headings read alike, the source gives them in different places.

Key:
[1] = test system: rat aortic ring segments preconstricted with phenylephrine; experiment: Isometric tension studies: vasodilation of preconstricted rat aortic ring segments; type: cell-based; details: for EC50: read-out: pD2-value (vasodilatory potency) (converted)
Description: Vasodilation of rat aortic ring segments preconstricted with phenylephrine, Example 2, Table 1. X-axis: relaxation in %; y-axis: log concentration (log M).
For in vitro characterization of the new pioglitazone nitrate (1) of Example 1, vasodilatory potency was determined by isometric tension studies. According to a published procedure rat aortic ring segments were preconstricted by the alpha-receptor-agonist phenylephrine [Daiber, A. et al., Mol Pharmacol 66 (2004), 1372-1382; Wendt, M. et al., Free Radic Biol Med 39 (2005), 381-391; Munzel, T. et al., J Clin Invest 95 (1995), 187-194]. After reaching a stable preconstriction of vascular tone, the vessels were dose-dependently vasodilated until the final tone at the highest added concentration of the vasodilator was reached. The vasodilators were added at half-logarithmic concentrations starting at 10^−8 M (=10 nanomolar). Vasodilatory potency was compared creating a concentration-relaxation curve. The data are based on experiments with aorta from at least 6 rats on 3 different days.

[2] = test system: isolated rat cardiac mitochondria; experiment: ROS/RONS formation in isolated mitochondria (L-012 chemiluminescence); type: biochemical
Source text: Reactive oxygen and nitrogen species formation in response to in vitro challenge of isolated rat cardiac mitochondria based on reaction of the chemiluminescence dye L-012 (a luminal analogue), Example 3, Table 2. X-axis: compounds tested with concentration [μM]; y-axis: photons n per 1 sec of emission of chemiluminescence light (ECL).
Vascular oxidative stress is a well-known side effect of nitrate tolerance (an adverse condition that develops under chronic nitrate therapy). Therefore, the induction of reactive oxygen and nitrogen species formation in response to in vitro challenges with the test compounds was assessed in isolated mitochondria according to a published procedure [Daiber, A. et al., Mol Pharmacol 66 (2004), 1372-1382; Daiber, A. et al., Biochem Biophys Res Commun 338 (2005), 1865-1874; Daiber, A. et al., Mol Pharmacol 68 (2005), 579-588]. The assay is based on the reaction of the chemiluminescence dye L-012 (a luminol analogue) with reactive oxygen and nitrogen species (RONS, e.g. superoxide anion radicals, peroxynitrite anions or nitrogen dioxide radicals) and subsequent emission of chemiluminescence light (ECL). The signal is counted in photons/time (=counts/30s). The data are based on experiments with cardiac mitochondria from at least 6 rats on 3 different days.

[3] = rat aortic rings preconstricted with phenylephrine
[4] = rat aortic rings preconstricted with phenylephrine, concentration-relaxation curve

| SMILES | Isometric tension, relaxation (Mean ± SEM) ([1]; Log [M] −3.5) [%] | Isometric tension, relaxation (Mean ± SEM) ([1]; Log [M] −4) [%] | Isometric tension, relaxation (Mean ± SEM) ([1]; Log [M] −4.5) [%] | Isometric tension, relaxation (Mean ± SEM) ([1]; Log [M] −5) [%] | Isometric tension, relaxation (Mean ± SEM) ([1]; Log [M] −5.5) [%] | Isometric tension, relaxation (Mean ± SEM) ([1]; Log [M] −6) [%] | Isometric tension, relaxation (Mean ± SEM) ([1]; Log [M] −6.5) [%] | Isometric tension, relaxation (Mean ± SEM) ([1]; Log [M] −7) [%] | Isometric tension, relaxation (Mean ± SEM) ([1]; Log [M] −7.5) [%] | Isometric tension, relaxation (Mean ± SEM) ([1]; Log [M] −8) [%] | Vasodilatory potency, result in words [1, 3] | EC50 [1, 4] [µM] | ROS formation, Mean ([2]; rat, 10 μM) [counts/1 s] | ROS formation, Mean ([2]; rat, 100 μM) [counts/1 s] | ROS formation, Mean ([2]; rat, 1000 μM) [counts/1 s] | ROS formation, Mean ([2]; Conc. 10 μM, basal 627.7) [counts/1 s] | ROS formation, Mean ([2]; Conc. 100 μM, basal 627.7) [counts/1 s] | ROS formation, Mean ([2]; Conc. 1000 μM, basal 627.7) [counts/1 s] | further results |
| --- | --- | --- | --- | --- | --- | --- | --- | --- | --- | --- | --- | --- | --- | --- | --- | --- | --- | --- | --- |
| CCc1ccc(CCOc2ccc(CC3SC(=O)NC3=O)cc2)nc1 (racemic) [Pioglitazone] | 55.47 ± 5.98 | 22.40 ± 3.34 | 11.19 ± 3.82 | 8.30 ± 3.49 | 5.63 ± 3.15 | 5.40 ± 2.88 | 4.14 ± 2.57 | 3.42 ± 1.68 | 2.92 ± 1.49 | 0 | weak relaxing effects | ~316 | 563 | 874.5 | 801.7 |  |  |  |  |
| O=[N+]([O-])OCC(CO[N+](=O)[O-])O[N+](=O)[O-] [Glycerol trinitrate] |  |  |  |  |  |  |  |  |  |  |  |  |  |  |  | 597.7 | 898.5 | 2762 |  |
| O=[N+]([O-])O[C@@H]1CO[C@H]2[C@@H]1OC[C@@H]2O [ISMN, Isosorbide-5-mononitrate] | 64.17 ± 4.11 | 43.46 ± 3.28 | 16.76 ± 2.29 | 9.29 ± 2.23 | 5.47 ± 1.95 | 3.73 ± 1.39 | 3.86 ± 1.04 | 0 |  |  |  |  |  |  |  |  |  |  | Isometric tension, relaxation (Mean ± SEM) ([1]; Log [M] −2): 98.77 ± 0.75%; Isometric tension, relaxation (Mean ± SEM) ([1]; Log [M] −2.5): 94.91 ± 1.28%; Isometric tension, relaxation (Mean ± SEM) ([1]; Log [M] −3): 82.81 ± 3.45% |
| O=C(NCCO[N+](=O)[O-])OCCl [Linker 2, chloromethyl N-2-nitrooxyethylcarbamate] | 96.18 ± 2.20 | 91.00 ± 5.36 | 86.66 ± 6.04 | 80.97 ± 6.47 | 68.37 ± 6.89 | 51.19 ± 6.35 | 30.73 ± 5.12 | 16.85 ± 3.29 | 8.25 ± 2.09 | 0 |  |  |  |  |  | 622.5 | 674.7 | 1395.8 | pD2-value (vasodilatory potency) [1, 4]: approximately 6; Effect on RONS formation, result in words ([2]; in vitro challenge of isolated rat cardiac mitochondria): has also some increasing effect |
| CCc1ccc(CCOc2ccc(CC3SC(=O)N(COC(=O)NCCO[N+](=O)[O-])C3=O)cc2)nc1 (stereo not drawn) [compound 1] | 98.13 ± 5.98 | 87.22 ± 3.34 | 79.07 ± 3.82 | 70.11 ± 3.49 | 57.49 ± 3.15 | 43.34 ± 2.88 | 27.72 ± 2.57 | 12.82 ± 1.68 | 2.65 ± 1.49 | 0 | even more active than isosorbide dinitrate | ~1 | 697.3 | 609.8 | 889.2 |  |  |  | Effect on RONS formation, result in words [2]: does not have a pronounced effect on RONS formation |
